The record followed here is article PMC11855827, “High-Throughput Screening of Five Compound Libraries for Anthelmintic Activity and Toxicity Leads to the Discovery of Two Flavonoid Compounds” (International Journal of Molecular Sciences, 2025).

The test system of the assay is C. elegans. The conditions noted are these: Table S2, C. elegans SS assay, 110 μM, averages of 4 data points.

For `C[C@H](CCC(=O)[O-])[C@H]1CC[C@H]2[C@@H]3[C@H](O)C[C@@H]4C[C@H](O)CC[C@]4(C)[C@H]3C[C@H](O)[C@]12C.[Na+]` [Cholic acid (sodium)], the “Percentage of motility inhibition 0 h” value was found to be 0% and the “Percentage of motility inhibition 24 h” value stood at 5%.

Turning to `C[N+](C)(C)CCO.O=C([O-])C(O)C(O)C(=O)O` (centres unmarked) [Choline (bitartrate)], the “Percentage of motility inhibition 0 h” value amounted to 0% and the “Percentage of motility inhibition 24 h” value is recorded as 0%.

`C[N+](C)(C)CCO.[Cl-]` [Choline (chloride)]: the “Percentage of motility inhibition 0 h” value worked out at 51% and the “Percentage of motility inhibition 24 h” value is reported as 17%.

As for `O=C(O)[C@H]1O[C@@H](Oc2cc(O)c3c(=O)cc(-c4ccccc4)oc3c2)[C@H](O)[C@@H](O)[C@@H]1O` [Chrysin‐7‐O‐glucuronide], the “Percentage of motility inhibition 0 h” value is 0% and the “Percentage of motility inhibition 24 h” value is recorded as 37%.

`COc1cc(-c2oc3cc(OC)c(OC)c(O)c3c(=O)c2OC)ccc1O` [Chrysosplenetin]: the “Percentage of motility inhibition 0 h” value is on record as 17% and the “Percentage of motility inhibition 24 h” value is reported as 6%.

With `C[C@H](CC(=O)[C@@H]1OC1(C)C)[C@H]1C(=O)C[C@@]2(C)C3=CC[C@H]4C(C)(C)[C@@H](O[C@@H]5OC[C@@H](O)[C@H](O)[C@H]5O)CC[C@@]45C[C@@]35[C@@H](O)C[C@]12C` [Cimicifugoside H-1], the “Percentage of motility inhibition 0 h” value was 0% and the “Percentage of motility inhibition 24 h” value was found to be 3%.

As to `C[C@@H]1C[C@H]2O[C@@]3(O[C@@H]2C(C)(C)O)[C@H](O)[C@@]2(C)[C@@H]4CC[C@H]5C(C)(C)[C@@H](O[C@@H]6OC[C@@H](O)[C@H](O)[C@H]6O)CC[C@@]56C[C@@]46CC[C@]2(C)[C@@H]13` [Cimigenoside], the “Percentage of motility inhibition 0 h” value turned out to be 30% and the “Percentage of motility inhibition 24 h” value is recorded as 17%.

With `CC(=O)O[C@@H]1C[C@@]23C[C@@]24CC[C@H](O[C@@H]2OC[C@H](O)[C@H](O)[C@H]2O)C(C)(C)[C@@H]4CC[C@H]3[C@]2(C)[C@@H](O)[C@]34O[C@H](C[C@@H](C)[C@@H]3[C@@]12C)[C@@H](C(C)(C)O)O4` [Cimiracemoside D], the “Percentage of motility inhibition 0 h” value is 0% and the “Percentage of motility inhibition 24 h” value came to 0%.

Consider `Oc1cc(O)c2c(c1)O[C@@]1(c3ccc(O)c(O)c3)Oc3cc(O)c4c(c3[C@@H]2[C@H]1O)O[C@H](c1ccc(O)c(O)c1)[C@H](O)[C@H]4c1c(O)cc(O)c2c1O[C@H](c1ccc(O)c(O)c1)[C@H](O)C2` [Cinnamtannin B‐1], for which the “Percentage of motility inhibition 0 h” value is listed as 0% and the “Percentage of motility inhibition 24 h” value is 4%.

For `C[N+](C)(C)CCOP(=O)([O-])OP(=O)([O-])OC[C@H]1O[C@@H](n2ccc(N)nc2=O)[C@H](O)[C@@H]1O.[Na+]` [Citicoline (sodium)], the “Percentage of motility inhibition 0 h” value was 4% and the “Percentage of motility inhibition 24 h” value was found to be 0%.

For the compound `O.O=C(O)CC(O)(CC(=O)O)C(=O)O` [Citric acid (monohydrate)], the “Percentage of motility inhibition 0 h” value was found to be 63% and the “Percentage of motility inhibition 24 h” value was 32%.

Consider `N.N.N.O=C(O)CC(O)(CC(=O)O)C(=O)O` [Citric acid (triammonium)], for which the “Percentage of motility inhibition 0 h” value was 8% and the “Percentage of motility inhibition 24 h” value stood at 0%.

In the case of `O.O=C([O-])CC(O)(CC(=O)[O-])C(=O)[O-].[K+].[K+].[K+]` [Citric acid (tripotassium hydrate)], the “Percentage of motility inhibition 0 h” value is 28% and the “Percentage of motility inhibition 24 h” value turned out to be 4%.

For the compound `O=C([O-])CC(O)(CC(=O)[O-])C(=O)[O-].[Na+].[Na+].[Na+]` [Citric acid (trisodium)], the “Percentage of motility inhibition 0 h” value was 8% and the “Percentage of motility inhibition 24 h” value turned out to be 2%.

On to `Cl.Clc1ccc(Cn2c(CN3CCCC3)nc3ccccc32)cc1` [Clemizole (hydrochloride)], for which the “Percentage of motility inhibition 0 h” value was determined as 25% and the “Percentage of motility inhibition 24 h” value was determined as 69%.

On to `CCC[C@@H]1C[C@@H](C(=O)N[C@@H]([C@H]2O[C@H](SC)[C@H](O)[C@@H](O)[C@H]2O)[C@H](C)Cl)N(C)C1.Cl` [Clindamycin (hydrochloride)], for which the “Percentage of motility inhibition 0 h” value was 28% and the “Percentage of motility inhibition 24 h” value worked out at 3%.

Turning to `Nc1ncnc(N[C@@H]2O[C@H](CO)[C@@H](O)[C@H]2O)c1[N+](=O)[O-]` [Clitocine], the “Percentage of motility inhibition 0 h” value worked out at 0% and the “Percentage of motility inhibition 24 h” value is on record as 4%.

Consider `O=C(/C=C\c1ccc(O)c(O)c1)N[C@@H](Cc1ccc(O)c(O)c1)C(=O)O` [Clovamide], for which the “Percentage of motility inhibition 0 h” value amounted to 2% and the “Percentage of motility inhibition 24 h” value was found to be 0%.

Turning to `Cc1onc(-c2ccccc2Cl)c1C(=O)N[C@@H]1C(=O)N2[C@@H]1SC(C)(C)[C@@H]2C(=O)[O-].O.[Na+]` [Cloxacillin (sodium monohydrate)], the “Percentage of motility inhibition 0 h” value was 14% and the “Percentage of motility inhibition 24 h” value was determined as 4%.

Regarding `C[C@@]12C[C@@H](c3ccoc3)OC(=O)[C@@H]1CC[C@]1(C)[C@H]2[C@@H]2C=C[C@@]1(O)C(=O)O2` [Columbin], the “Percentage of motility inhibition 0 h” value came to 0% and the “Percentage of motility inhibition 24 h” value is given as 1%.

Consider `C=C[C@]1(C)C=C2CC[C@H]3[C@@](C)(CCC[C@@]3(C)C(=O)O)[C@@H]2CC1` [Continentalic acid], for which the “Percentage of motility inhibition 0 h” value was found to be 36% and the “Percentage of motility inhibition 24 h” value is reported as 24%.

As for `O=S(=O)([O-])O.c1c2c(cc3c1OCO3)-c1cc3ccc4c(c3c[n+]1CC2)OCO4` [Coptisine (Sulfate)], the “Percentage of motility inhibition 0 h” value is given as 0% and the “Percentage of motility inhibition 24 h” value is 9%.

Regarding `[Cl-].c1c2c(cc3c1OCO3)-c1cc3ccc4c(c3c[n+]1CC2)OCO4` [Coptisine (chloride)], the “Percentage of motility inhibition 0 h” value was determined as 1% and the “Percentage of motility inhibition 24 h” value is reported as 6%.

In the case of `C=C[C@H]1[C@H](O[C@@H]2O[C@H](CO)[C@@H](O)[C@H](O)[C@H]2O)OC=C(C(=O)OC)[C@H]1CCOC(=O)c1cc(O)c(O)c(O)c1` [Cornuside], the “Percentage of motility inhibition 0 h” value was 0% and the “Percentage of motility inhibition 24 h” value is 24%.

For the compound `COc1cc2c(cc1OC)[C@H]1[C@@H](C)c3ccc(OC)c(OC)c3CN1CC2` [Corydaline], the “Percentage of motility inhibition 0 h” value came to 0% and the “Percentage of motility inhibition 24 h” value was found to be 8%.

On to `CC(C)=CCC/C(C)=C/Cc1cc(-c2coc3cc(O)ccc3c2=O)ccc1O` [Corylifol A], for which the “Percentage of motility inhibition 0 h” value is 40% and the “Percentage of motility inhibition 24 h” value is on record as 4%.

Turning to `CN1Cc2c(ccc3c2OCO3)[C@@]2(C)[C@@H](O)Cc3cc4c(cc3[C@@H]12)OCO4` [Corynoline], the “Percentage of motility inhibition 0 h” value came to 13% and the “Percentage of motility inhibition 24 h” value came out at 0%.

Consider `COc1cc2c(cc1O)CCN1Cc3c(ccc(OC)c3OC)CC21` (centres unmarked) [Corypalmine], for which the “Percentage of motility inhibition 0 h” value was 17% and the “Percentage of motility inhibition 24 h” value is 16%.

Turning to `CC(/C=C/C=C(\C)C(=O)[O-])=C\C=C\C=C(C)\C=C\C=C(/C)C(=O)[O-].[Na+].[Na+]` [Crocetin (disodium)], the “Percentage of motility inhibition 0 h” value is given as 0% and the “Percentage of motility inhibition 24 h” value came out at 5%.

`CC(/C=C/C=C(\C)C(=O)O)=C\C=C\C=C(C)\C=C\C=C(/C)C(=O)O.CNC[C@H](O)[C@@H](O)[C@H](O)[C@H](O)CO.CNC[C@H](O)[C@@H](O)[C@H](O)[C@H](O)CO` [Crocetin (meglumine)]: the “Percentage of motility inhibition 0 h” value is reported as 6% and the “Percentage of motility inhibition 24 h” value is reported as 10%.

Turning to `CC(/C=C/C=C(\C)C(=O)O[C@@H]1O[C@H](CO)[C@@H](O)[C@H](O)[C@H]1O)=C\C=C\C=C(C)\C=C\C=C(/C)C(=O)O[C@@H]1O[C@H](CO[C@@H]2O[C@H](CO)[C@@H](O)[C@H](O)[C@H]2O)[C@@H](O)[C@H](O)[C@H]1O` [Crocin II], the “Percentage of motility inhibition 0 h” value was found to be 27% and the “Percentage of motility inhibition 24 h” value turned out to be 1%.

Regarding `Nc1nc(=O)[nH]c2c1ncn2[C@@H]1O[C@H](CO)[C@@H](O)[C@H]1O` [Crotonoside], the “Percentage of motility inhibition 0 h” value came to 0% and the “Percentage of motility inhibition 24 h” value is 0%.

Turning to `CC(=O)OC(C)(C)CCC(=O)[C@](C)(O)[C@H]1[C@H](O)C[C@@]2(C)[C@@H]3CC=C4[C@@H](C[C@H](O)[C@@H](O)C4(C)C)[C@]3(C)C(=O)C[C@]12C` [Cucurbitacin IIa], the “Percentage of motility inhibition 0 h” value is given as 0% and the “Percentage of motility inhibition 24 h” value is reported as 6%.

With `CC(C)(O)CCC(=O)[C@](C)(O)C1[C@H](O)C[C@@]2(C)[C@@H]3CC=C4[C@@H](C[C@H](O)[C@@H](O)C4(C)C)[C@]3(C)C(=O)C[C@]12C` (some centres unmarked) [Cucurbitacin IIb], the “Percentage of motility inhibition 0 h” value is given as 7% and the “Percentage of motility inhibition 24 h” value amounted to 43%.

For the compound `CC(=O)CC[C@@H]1[C@H]2CC(=C(C)C)C(=O)C[C@@]12C` [Curcumenone], the “Percentage of motility inhibition 0 h” value was 3% and the “Percentage of motility inhibition 24 h” value is recorded as 0%.

For the compound `C=C1C[C@@]2(O)O[C@@]3(C[C@H]2C(C)C)[C@@H](C)CC[C@@H]13` [Curcumol], the “Percentage of motility inhibition 0 h” value is 8% and the “Percentage of motility inhibition 24 h” value worked out at 12%.

In the case of `C/C1=C/CC[C@H](C)C(=O)C[C@@H](C(C)C)C(=O)C1` [Curdione], the “Percentage of motility inhibition 0 h” value turned out to be 7% and the “Percentage of motility inhibition 24 h” value is 22%.

With `COc1cc2c(cc1O)C1Cc3ccc(OC)c(O)c3C[N+]1(C)CC2.[Cl-]` (centres unmarked) [Cyclanoline (chloride)], the “Percentage of motility inhibition 0 h” value is recorded as 7% and the “Percentage of motility inhibition 24 h” value worked out at 12%.

For `CCC(C)C1NC(=O)C(C)NC1=O` (centres unmarked) [Cyclo(Ile‐Ala)], the “Percentage of motility inhibition 0 h” value is listed as 16% and the “Percentage of motility inhibition 24 h” value is recorded as 22%.

Regarding `CC(C)(O)[C@@H]1CC[C@](C)([C@H]2[C@@H](O)C[C@@]3(C)[C@@H]4C[C@H](O)[C@H]5C(C)(C)[C@@H](O)CC[C@@]56C[C@@]46CC[C@]23C)O1` [Cycloastragenol], the “Percentage of motility inhibition 0 h” value is listed as 8% and the “Percentage of motility inhibition 24 h” value is recorded as 31%.
